Source: US9867795B2, “Nitrated lipids and methods of making and using thereof” (The UAB Research Foundation, priority 2004, dated 2018)

Tests used:
[1] = test system: human vascular endothelial cells and macrophages; assay: Whole Human Genome Oligo Array gene expression; assay type: cell-based; set-up: CCNE1 down-regulated / CAMK1 down-regulated / TCF4 down-regulated / PPARGC1B down-regulated / RB1 down-regulated / TNF down-regulated / TYK2 down-regulated / STAT1 down-regulated / CAV3 down-regulated / EDARADD down-regulated / DAPK2 down-regulated / CASP8AP2 down-regulated / ITR down-regulated / RAC2 down-regulated / CDC2 down-regulated / CDC42 down-regulated / CCND3 down-regulated / PLAU down-regulated / EGR2 down-regulated / ADRB2 down-regulated / VASP down-regulated / FDPS down-regulated / IL11 down-regulated / AIF1 down-regulated / TGFB1 down-regulated / PIK3CB down-regulated / PTGS1 down-regulated / IRS1 down-regulated / TIMP2 down-regulated / PTGES2 down-regulated / PDGFRA down-regulated / TLR2 down-regulated / E2F2 down-regulated / RACGAP1 down-regulated / LDLR down-regulated / NCOR2 down-regulated / NCR1 down-regulated / CARD9 down-regulated / SRF down-regulated / PDGFA down-regulated / FLJ23091 down-regulated / BCL2A1 down-regulated / TIMP1 down-regulated / PDGFC down-regulated / TIMP3 down-regulated / ARHGEF1 down-regulated / FN1 down-regulated / MMP19 down-regulated / JUNB down-regulated / PPARD down-regulated / MYLK down-regulated / TGFBI down-regulated / ILK down-regulated / MAPKAPK3 down-regulated / ROCK1 down-regulated / IGF1 down-regulated / VEGFB down-regulated / ECGF1 down-regulated / GADD45A up-regulated / CASP1 up-regulated / CASP4 up-regulated / CCNA1 up-regulated / JUN up-regulated / CASP3 up-regulated / GADD45B up-regulated / AATK up-regulated / AMID up-regulated / IL10RA up-regulated / GADD45G up-regulated / IRS2 up-regulated / HO-1, heme oxygenase-1 up-regulated: dose or concentration left out as unconfirmed; settings: 24 hours
Procedure: The nitroalkenes of the present invention also display regulatory actions towards the expression of genes related to inflammatory responses, cell growth, cell differentiation, cell signaling, cell death (apoptosis) and metabolism. For example, nitrolinoleate regulates gene expression in human vascular endothelial cells and macrophages. Cells were stimulated with vehicle and linoleic acid (2.5 μM, the latter two treatments as controls) and LNO2O ([…]) for 24 hours. The total RNA was purified with a Qiagen Kit and analyzed with a Whole Human Genome Oligo Array (G4112A, 41K Genes, Agilent). […] In contrast, the native (precursor) fatty acid, linoleic acid, only regulates 14 genes, with an up-regulation of 5 genes and the down-regulation of 9 genes.

[2] = Hydrophobic stabilization and micellar partition of LNO2; assay type: physicochemical
Source text: The formation of •NO was followed by EPR (measuring cPTI formation) in the presence of different concentrations of octyl-β-glucopyranoside (OG) and octyl-thio-β-glucopyranoside (OTG). The rate of •NO release was constant and not influenced by these detergents until the critical micellar concentration (CMC) for each was achieved, after which •NO formation was inhibited as the volume of the hydrophobic environment increased (FIG. 24A). Similar results were obtained when measuring •NO formation via conversion of oxymyoglobin to metmyoglobin. Apparent •NO release rates remained constant until OG concentration reached ˜2.8 mg/ml (CMC=2.77 mg/ml (11)). […] The inhibition of the NO2 group loss at 268 nm was paralleled by inhibition of the formation of oxidation products at 320 nm, similarly paralleling the detergent-induced inhibition of •NO release observed by EPR and oxymyoglobin-based detection.
Thus, a plot of 1/v vs. α will yield a linear plot with slope divided by y-axis intercept equal to K−1.

[3] = LNO2O 2.5 mM, linoleic acid 2.5 μM

10-nitro-9,12-octadecadienoic acid and 12-nitro-9,12-octadecadienoic acid [LNO2]
AATK up-regulated [1]: 1.503 | AMID up-regulated [1]: 8.362 | CASP1 up-regulated [1]: 2.572 | CASP3 up-regulated [1]: 1.689 | CASP4 up-regulated [1]: 2.57 | CCNA1 up-regulated [1]: 2.558 | GADD45A up-regulated [1]: 2.823 | GADD45B up-regulated [1]: 1.674 | GADD45G up-regulated [1]: 3.155 | HO-1, heme oxygenase-1 up-regulated [1]: 4.086 | IL10RA up-regulated [1]: 3.173 | IRS2 up-regulated [1]: 3.243 | JUN up-regulated [1]: 2.454 | number of genes down-regulated [1, 3]: > 3000 genes | number of genes regulated [1, 3]: > 5000 genes | number of genes up-regulated [1, 3]: > 2300 genes | ADRB2 down-regulated ([1]; p < 0.05): 2.04 fold | AIF1 down-regulated ([1]; p < 0.05): 3.95 fold | ARHGEF1 down-regulated ([1]; p < 0.05): 1.64 fold | BCL2A1 down-regulated ([1]; p < 0.05): 3.50 fold | CAMK1 down-regulated ([1]; p < 0.05): 2.24 fold | CARD9 down-regulated ([1]; p < 0.05): 3.33 fold | CASP8AP2 down-regulated ([1]; p < 0.05): 1.52 fold | CAV3 down-regulated ([1]; p < 0.05): 1.76 fold | CCND3 down-regulated ([1]; p < 0.05): 1.51 fold | CCNE1 down-regulated ([1]; p < 0.05): 1.58 fold | CDC2 down-regulated ([1]; p < 0.05): 2.75 fold | CDC42 down-regulated ([1]; p < 0.05): 1.65 fold | DAPK2 down-regulated ([1]; p < 0.05): 1.73 fold | E2F2 down-regulated ([1]; p < 0.05): 3.70 fold | ECGF1 down-regulated ([1]; p < 0.05): 1.73 fold | EDARADD down-regulated ([1]; p < 0.05): 1.69 fold | EGR2 down-regulated ([1]; p < 0.05): 2.65 fold | FDPS down-regulated ([1]; p < 0.05): 2.46 fold | FLJ23091 down-regulated ([1]; p < 0.05): 1.74 fold | FN1 down-regulated ([1]; p < 0.05): 3.33 fold | IGF1 down-regulated ([1]; p < 0.05): 1.54 fold | IL11 down-regulated ([1]; p < 0.05): 2.02 fold | ILK down-regulated ([1]; p < 0.05): 2.94 fold | IRS1 down-regulated ([1]; p < 0.05): 2.40 fold | ITR down-regulated ([1]; p < 0.05): 1.68 fold | JUNB down-regulated ([1]; p < 0.05): 1.60 fold | LDLR down-regulated ([1]; p < 0.05): 1.77 fold | MAPKAPK3 down-regulated ([1]; p < 0.05): 2.18 fold | MMP19 down-regulated ([1]; p < 0.05): 1.58 fold | MYLK down-regulated ([1]; p < 0.05): 3.13 fold | NCOR2 down-regulated ([1]; p < 0.05): 1.59 fold | NCR1 down-regulated ([1]; p < 0.05): 2.30 fold | PDGFA down-regulated ([1]; p < 0.05): 2.27 fold | PDGFC down-regulated ([1]; p < 0.05): 1.72 fold | PDGFRA down-regulated ([1]; p < 0.05): 2.36 fold | PIK3CB down-regulated ([1]; p < 0.05): 1.93 fold | PLAU down-regulated ([1]; p < 0.05): 7.58 fold | PPARD down-regulated ([1]; p < 0.05): 3.12 fold | PPARGC1B down-regulated ([1]; p < 0.05): 2.20 fold | PTGES2 down-regulated ([1]; p < 0.05): 1.59 fold | PTGS1 down-regulated ([1]; p < 0.05): 3.95 fold | RAC2 down-regulated ([1]; p < 0.05): 2.47 fold | RACGAP1 down-regulated ([1]; p < 0.05): 2.35 fold | RB1 down-regulated ([1]; p < 0.05): 2.06 fold | ROCK1 down-regulated ([1]; p < 0.05): 1.59 fold | SRF down-regulated ([1]; p < 0.05): 1.56 fold | STAT1 down-regulated ([1]; p < 0.05): 1.74 fold | TCF4 down-regulated ([1]; p < 0.05): 2.63 fold | TGFB1 down-regulated ([1]; p < 0.05): 2.46 fold | TGFBI down-regulated ([1]; p < 0.05): 9.80 fold | TIMP1 down-regulated ([1]; p < 0.05): 3.62 fold | TIMP2 down-regulated ([1]; p < 0.05): 1.92 fold | TIMP3 down-regulated ([1]; p < 0.05): 2.27 fold | TLR2 down-regulated ([1]; p < 0.05): 1.89 fold | TNF down-regulated ([1]; p < 0.05): 2.01 fold | TYK2 down-regulated ([1]; p < 0.05): 2.00 fold | VASP down-regulated ([1]; p < 0.05): 4.85 fold | VEGFB down-regulated ([1]; p < 0.05): 1.51 fold | partition coefficient K ([2]; FIG. 28 legend): ~1500 | stability in organic solvents ([2]; organic solvents such as n-octanol): stable
